In patent publication EP4644383A1 (Jiangsu Yahong Meditech Co., Ltd., priority 2022, dated 2024):
Where two headings read alike, the source gives them in different places.

Assays:
FGFR3 = target: T1, FGFR3 (Homo sapiens, UniProt P22607); assay: FGFR3 kinase activity inhibition assay (LanthaScreen TR-FRET); type: biochemical; conditions: for Selectivity (X) FGFR1/FGFR3: ratio of IC50 FGFR1/FGFR3, selectivity towards FGFR3
T1 construct: FGFR3's cytoplasmic domain [436-806 (terminal) amino acids]; purchased Carna 08-135
In short: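 Read-out is TR-FRET, with the 520 nm/495 nm emission ratio normalised to DMSO (max) and enzyme-free (min) controls. Enzyme was the FGFR3 cytoplasmic domain, residues 436-806. EDTA (10 mM) stopped the reaction, followed by 60 min at 22 °C before reading.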

FGFR1 = target: T2, FGFR1 (Homo sapiens, UniProt P11362); assay: FGFR1 kinase activity inhibition assay (LanthaScreen TR-FRET); type: biochemical
T2 construct: cytoplasmic domain [398-822 (terminal) amino acids]; purchased Carna 08-133
In short: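 Emission ratio 520 nm/495 nm by TR-FRET after stopping reaction with 10 mM EDTA and 60 min incubation at 22°C. Inhibition normalized between no-enzyme (min) and DMSO (max) controls, then fitted to a four-parameter curve (Top, Bottom, HillSlope).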

[1] = FGFR3 kinase, TR-FRET, read-out: IC50 (nM) FGFR3
[2] = FGFR1 kinase, TR-FRET, read-out: IC50 (nM) FGFR1

T1 sequence (P22607 436-806): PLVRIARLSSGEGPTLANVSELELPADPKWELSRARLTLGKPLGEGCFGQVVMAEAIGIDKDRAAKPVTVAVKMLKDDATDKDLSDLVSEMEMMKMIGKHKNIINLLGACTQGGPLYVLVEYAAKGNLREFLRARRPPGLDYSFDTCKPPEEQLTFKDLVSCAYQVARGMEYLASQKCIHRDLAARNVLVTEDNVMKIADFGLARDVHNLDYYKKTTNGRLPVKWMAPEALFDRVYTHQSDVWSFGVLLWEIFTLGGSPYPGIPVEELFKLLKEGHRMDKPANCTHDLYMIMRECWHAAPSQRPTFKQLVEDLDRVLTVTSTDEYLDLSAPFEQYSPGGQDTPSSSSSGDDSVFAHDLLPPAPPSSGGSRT
T2 sequence (P11362 398-822): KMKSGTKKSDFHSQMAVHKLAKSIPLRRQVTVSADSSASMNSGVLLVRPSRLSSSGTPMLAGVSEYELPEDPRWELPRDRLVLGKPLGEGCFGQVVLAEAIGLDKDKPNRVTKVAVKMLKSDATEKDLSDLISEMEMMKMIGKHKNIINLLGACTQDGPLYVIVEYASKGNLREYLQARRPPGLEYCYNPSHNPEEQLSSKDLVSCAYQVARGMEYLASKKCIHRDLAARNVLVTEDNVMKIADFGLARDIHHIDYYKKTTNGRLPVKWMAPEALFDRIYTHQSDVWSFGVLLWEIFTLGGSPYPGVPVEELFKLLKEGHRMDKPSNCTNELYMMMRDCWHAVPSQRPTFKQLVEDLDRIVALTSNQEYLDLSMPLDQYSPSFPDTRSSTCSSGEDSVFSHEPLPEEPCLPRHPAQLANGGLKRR

Compound	IC50 (FGFR3; [1]) [nM]	Selectivity (X) FGFR1/FGFR3 (FGFR3)	IC50 (FGFR1; [2]) [nM]	IC50 (FGFR3) [nM]	IC50 (FGFR1) [nM]
Cc1ccc2ncccc2c1C(C)Oc1ncc2[nH]nc(-c3cnn(C)c3)c2n1 (stereo not drawn) [Example 110, 6-methyl-5-(1-((3-(1-methyl-1H-pyrazol-4-yl)-1H-pyrazino [4,3-d]pyrimidin-5-yl)oxy)ethyl)quinoline]	–	A (A represents 1 ≤ multiple X<20)	–	1 to 10	10 to 100
CC(Oc1ccc2[nH]nc(-c3cnn(C4CC(S(C)(=O)=O)C4)c3)c2c1)c1cccc2nccnc12 (stereo not drawn) [Example 229, 5-(1-((3-(1-(3-(methylsulfonyl)cyclobutyl)-1H-pyrazol-4-yl)-1H-indazol-5-yl)oxy)ethyl)quinoxaline]	< 1	B (B represents 20 ≤ multiple X<50)	10 to 100	–	–
Cc1ccc2ncccc2c1C(C)Oc1ccc2[nH]nc(-c3cnn(C4CN(C(=O)C(C)(C)O)C4)c3)c2c1 (stereo not drawn) [Example 217, 2-hydroxy-2-methyl-1-(3-(4-(5-(1-(6-methylquinolin-5-yl)ethoxy)-1H-indazol-3-yl)-1H-pyrazol-1-yl)azetidin-1-yl)propan-1-one]	< 1	C (C represents 50 ≤ multiple X<100)	10 to 100	–	–
CC(=O)N(C)C1CC(n2cc(-c3n[nH]c4ccc(OC(C)c5cccc6nccnc56)cc34)cn2)C1 (stereo not drawn) [Example 199, N-methyl-N-(3-(4-(5-(1-(quinoxalin-5-yl)ethoxy)-1H-indazol-3-yl)-1H-pyrazol-1-yl)cyclobutyl)acet amide]	< 1	A (A represents 1 ≤ multiple X<20)	10 to 100	–	–
CC(Oc1ccc2[nH]nc(-c3cnn(C4CC(N(C)S(C)(=O)=O)C4)c3)c2c1)c1cccc2nccnc12 (stereo not drawn) [Example 198, N-methyl-N-(3-(4-(5-(1-(quinoxalin-5-yl)ethoxy)-1H-indazol-3-yl)-1H-pyrazol-1-yl)cyclobutyl)methanesulfonamide]	< 1	B (B represents 20 ≤ multiple X<50)	10 to 100	–	–
CC(Oc1ccc2[nH]nc(-c3ccc(N4CCS(=O)(=O)CC4)nc3)c2c1)c1cccc2nccnc12 (stereo not drawn) [Example 149, 4-(5-(5-(1-(quinoxalin-5-yl)ethoxy)-1H-indazol-3-yl)pyridin-2-yl)thiomorpholine1,1-dioxide]	< 1	B (B represents 20 ≤ multiple X<50)	10 to 100	–	–
CC(Oc1ccc2[nH]nc(-c3cnn(C)c3)c2c1)c1c(C(F)F)ccc2nccnc12 (stereo not drawn) [Example 232]	< 1	A (A represents 1 ≤ multiple X<20)	1 to 10	–	–
CC(=O)N1CCC(n2cc(-c3n[nH]c4ccc(O[C@H](C)c5c(Cl)cncc5Cl)nc34)cn2)CC1 [Example 35]	–	A (A represents 1 ≤ multiple X<20)	–	< 1	1 to 10
C[C@@H](Oc1cc(F)c2[nH]nc(-c3cnn(CCC4CCOCC4)c3)c2c1)c1c(Cl)cncc1Cl [Example 18, (R)-5-(1-(3,5-dichloropyridin-4-yl)ethoxy)-7-fluoro-3-(1-(2-(tetrahydro-2H-pyran-4-yl)ethyl)-1H-pyrazol-4-yl)-1H-indazole]	–	A (A represents 1 ≤ multiple X<20)	–	1 to 10	1 to 10
CC(Oc1ccc2[nH]nc(-c3cnn(C4CN(C(=O)C5(N)CC5)C4)c3)c2c1)c1cccc2nccnc12 (stereo not drawn) [Example 205, (1-aminocyclopropy 1)(3-(4-(5-(1-(quinoxalin-5-yl)ethoxy)-1H-indazol-3-yl)-1H-pyrazol-1-yl)azetidin-1-yl)methanone]	< 1	B (B represents 20 ≤ multiple X<50)	1 to 10	–	–
CC(C)c1cc(C(C)Oc2ccc3[nH]nc(-c4cnn(C)c4)c3c2)c2nccnc2c1 (stereo not drawn) [Example 144, 7-isopropyl-5-(1-((3-(1-methyl-1H-pyrazol-4-y1)-1H-indazol-5-yl)oxy)ethyl)quino xaline]	–	C (C represents 50 ≤ multiple X<100)	–	< 1	> 100
C[C@@H](Oc1cc(C#N)c2[nH]nc(-c3cnn(C)c3)c2c1)c1c(Cl)cncc1Cl [Example 8]	> 100	A (A represents 1 ≤ multiple X<20)	> 100	–	–
CNCCNS(=O)(=O)c1ccc2[nH]nc(-c3cnn(C)c3)c2c1 [Example 76, 3-(1-methyl-1H-pyrazol-4-yl)-N-(2-(methylamino)ethyl)-1H-indazole-5-sulfonamide]	> 100	A (A represents 1 ≤ multiple X<20)	> 100	–	–

Now from value to molecule, other results behind:

IC50 (FGFR3; [1]) [nM]	Selectivity (X) FGFR1/FGFR3 (FGFR3)	IC50 (FGFR1; [2]) [nM]	Compound	IC50 (FGFR3) [nM]	IC50 (FGFR1) [nM]
1 to 10	B (B represents 20 ≤ multiple X<50)	> 100	COc1cc(OC(C)c2cc(Cl)cc3nccnc23)cc2c(-c3cnn(C)c3)n[nH]c12 (stereo not drawn) [Example 226]	–	–
1 to 10	A (A represents 1 ≤ multiple X<20)	10 to 100	C[C@@H](Oc1cc(F)c2[nH]nc(-c3cnn(CCN4CCN(C)CC4)c3)c2c1)c1c(Cl)cncc1Cl [Example 22, (R)-5-(1-(3,5-dichloropyridin-4-yl)ethoxy)-7-fluoro-3-(1-(2-(4-methylpiperazin-1-yl)ethyl)-1H-pyrazol-4-yl)-1H-indazole]	–	–
10 to 100	A (A represents 1 ≤ multiple X<20)	> 100	C[C@@H](Oc1ccc2[nH]nc(-c3cnn4c3CCC4)c2n1)c1c(Cl)cncc1Cl [Example 45, (R)-5-(1-(3,5-dichloropyridin-4-yl)ethoxy)-3-(5,6-dihydro-4H-pyrrolo[1,2-b]pyrazol-3-yl)-1H-pyrazolo[4,3-b]pyridine]	–	–
1 to 10	A (A represents 1 ≤ multiple X<20)	10 to 100	CC(Oc1ccc2[nH]nc(-c3cnn(C)c3)c2c1)c1nccn2nccc12 (stereo not drawn) [Example 176, 4-(1-((3-(1-methyl-1H-pyrazol-4-yl)-1H-indazol-5-yl)oxy)ethyl)py razolo[1,5-a]pyrazine]	–	–
1 to 10	B (B represents 20 ≤ multiple X<50)	10 to 100	CC(Oc1ccc2[nH]nc(-c3cnn(CC4CC(=O)N(C)C4)c3)c2c1)c1cccc2nccnc12 (stereo not drawn) [Example 200, 1-methyl-4-((4-(5-(1-(quinoxalin-5-yl)ethoxy)-1H-indazol-3-yl)-1H-pyrazol-1-yl)methyl)pyrrolidin-2-one]	–	–
< 1	A (A represents 1 ≤ multiple X<20)	1 to 10	COCCN(C)CCn1cc(-c2n[nH]c3c(F)cc(O[C@H](C)c4c(Cl)cncc4Cl)cc23)cn1 [Example 20, (R)-2-(4-(5-(1-(3,5-dichloropyridin-4-yl)ethoxy)-7-fluoro-1H-indazol-3-yl)-1H-pyrazol-1-yl)-N-(2-methoxyethyl)-N-methylethan-1-amine]	–	–
< 1	B (B represents 20 ≤ multiple X<50)	10 to 100	Cc1cc(C(C)Oc2ccc3[nH]nc(-c4cnn(C5CN(C(=O)CO)C5)c4)c3c2)c2cccnc2c1 (stereo not drawn) [Example 192, 2-hydroxy-1-(3-(4-(5-(1-(7-methylquinolin-5-yl)ethoxy)-1H-indazol-3-yl)-1-pyrazol-1-yl)azetidin-1-yl)ethan-1-one]	–	–
1 to 10	B (B represents 20 ≤ multiple X<50)	10 to 100	CC(Oc1cc(F)c2[nH]nc(-c3cnn(C)c3)c2c1)c1cc(Cl)cc2nccnc12 (stereo not drawn) [Example 228, 7-chloro-5-(1-((7-fluoro-3-(1-methyl-1H-pyrazol-4-yl)-1H-indazol-5-yl)oxy)ethyl)qu inoxaline]	–	–
1 to 10	B (B represents 20 ≤ multiple X<50)	> 100	CC(Oc1ccc2[nH]nc(-c3cnn(CCS(=O)(=O)N(C)C)c3)c2c1)c1cccc2nccnc12 (stereo not drawn) [Example 160, N,N-dimethyl-2-(4-(5-(1-(quinoxalin-5-yl)ethoxy)-1H-indazol-3-yl)-1H-pyrazol-1-yl)ethane-1-sulfonamide]	–	–
< 1	A (A represents 1 ≤ multiple X<20)	1 to 10	C[C@@H](Oc1ccc2[nH]nc(-c3cnn(CCCN4CCOCC4)c3)c2n1)c1c(Cl)cncc1Cl [Example 32, (R)-4-(3-(4-(5-(1-(3,5-dichloropyridin-4-yl)ethoxy)-1H-pyrazolo[4,3-b]pyridin-3-yl)-1H-pyrazol-1-yl)propyl)morpholine]	–	–
10 to 100	B (B represents 20 ≤ multiple X<50)	> 100	CC(Oc1ccc2[nH]nc(-c3cnn(C)c3)c2c1)c1ccnc2ccccc12 (stereo not drawn) [Example 87, 4-(1-((3-(1-methyl-1H-pyrazol-4-yl)-1H-indazol-5-yl)oxy)ethyl)quinoline]	–	–
1 to 10	A (A represents 1 ≤ multiple X<20)	10 to 100	CCC(Oc1ccc2[nH]nc(-c3cnn(C)c3)c2c1)c1c(C)ccc2ncccc12 (stereo not drawn) [Example 113, 6-methyl-5-(1-((3-(1-methyl-1H-pyrazol-4-yl)-1H-indazol-5-yl)oxy)propyl)quinoline]	–	–
1 to 10	A (A represents 1 ≤ multiple X<20)	10 to 100	C[C@@H](Oc1ccc2[nH]nc(-c3cnn(CCN4CCCC4=O)c3)c2n1)c1c(Cl)cncc1Cl [Example 64, (R)-1-(2-(4-(5-(1-(3,5-dichloropyridin-4-yl)ethoxy)-1H-pyrazolo[4,3-b]pyridin-3-yl)-1H-pyrazol-1-yl)ethyl)pyrrolidin-2-one]	–	–
